Source: PubChem BioAssay (NCI)
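Following 48 hours of exposure in 96-well plates, responses at five concentrations were used to interpolate endpoints linearly. GI50 = concentration required for 50% inhibition of growth. TGI denotes the concentration required for complete inhibition of growth.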

Experiments:
Experiment in all cases: NCI tumour cell line growth inhibition, 48 h
KM20L2 colon = tested on: KM20L2 colon
CAKI-1 renal = tested on: CAKI-1 renal
NCI-H23 lung = tested on: NCI-H23 lung
MALME-3M melanoma = tested on: MALME-3M melanoma
HCT-15 colon = tested on: HCT-15 colon
SNB-75 CNS = tested on: SNB-75 CNS
KM12 colon = tested on: KM12 colon
OVCAR-4 ovarian = tested on: OVCAR-4 ovarian
LOX IMVI melanoma = tested on: LOX IMVI melanoma
SW-620 colon = tested on: SW-620 colon
TK-10 renal = tested on: TK-10 renal
SNB-19 CNS = tested on: SNB-19 CNS
DMS 114 small cell lung = tested on: DMS 114 small cell lung
SF-539 CNS = tested on: SF-539 CNS
HT29 colon = tested on: HT29 colon
M14 melanoma = tested on: M14 melanoma
DMS 273 small cell lung = tested on: DMS 273 small cell lung
CCRF-CEM leukemia = tested on: CCRF-CEM leukemia
OVCAR-3 ovarian = tested on: OVCAR-3 ovarian
EKVX NSCLC = tested on: EKVX NSCLC
RXF 393 renal = tested on: RXF 393 renal
OVCAR-8 ovarian = tested on: OVCAR-8 ovarian
OVCAR-5 ovarian = tested on: OVCAR-5 ovarian
HCT-116 colon = tested on: HCT-116 colon
SK-MEL-5 melanoma = tested on: SK-MEL-5 melanoma
DLD-1 colon = tested on: DLD-1 colon
COLO 205 colon = tested on: COLO 205 colon
HCC-2998 colon = tested on: HCC-2998 colon
NCI-H460 lung = tested on: NCI-H460 lung
SF-268 CNS = tested on: SF-268 CNS
U251 CNS = tested on: U251 CNS
SN12C renal = tested on: SN12C renal
NCI-H226 lung = tested on: NCI-H226 lung
SK-MEL-2 melanoma = tested on: SK-MEL-2 melanoma
786-0 renal = tested on: 786-0 renal
IGROV1 ovarian = tested on: IGROV1 ovarian
SF-295 CNS = tested on: SF-295 CNS
UO-31 renal = tested on: UO-31 renal
A549 NSCLC = tested on: A549 NSCLC
SR leukemia = tested on: SR leukemia
UACC-257 melanoma = tested on: UACC-257 melanoma
UACC-62 melanoma = tested on: UACC-62 melanoma
SK-MEL-28 melanoma = tested on: SK-MEL-28 melanoma
SK-OV-3 ovarian = tested on: SK-OV-3 ovarian
NCI-H522 lung = tested on: NCI-H522 lung
LXFL 529 NSCLC = tested on: LXFL 529 NSCLC
MOLT-4 leukemia = tested on: MOLT-4 leukemia
RPMI-8226 leukemia = tested on: RPMI-8226 leukemia
HL-60(TB) leukemia = tested on: HL-60(TB) leukemia
M19-MEL melanoma = tested on: M19-MEL melanoma
HOP-62 NSCLC = tested on: HOP-62 NSCLC
ACHN renal = tested on: ACHN renal
HOP-92 NSCLC = tested on: HOP-92 NSCLC
SNB-78 CNS = tested on: SNB-78 CNS
A498 renal = tested on: A498 renal
K-562 leukemia = tested on: K-562 leukemia

[Cl-].[Cl-].[Cl-].[O-]c1cccc2cccnc12.[O-]c1cccc2cccnc12.[O]=[Mo]
TGI (KM20L2 colon): 70.6 µM
GI50 (CAKI-1 renal): 20.6 µM
TGI (CAKI-1 renal): > 100 µM
GI50 (NCI-H23 lung): 2.6 µM
TGI (NCI-H23 lung): 8.38 µM
GI50 (MALME-3M melanoma): 2.25 µM
TGI (MALME-3M melanoma): 4.99 µM
GI50 (HCT-15 colon): 2.39 µM
TGI (HCT-15 colon): > 100 µM
GI50 (SNB-75 CNS): 5.08 µM
TGI (SNB-75 CNS): > 100 µM
GI50 (KM12 colon): 0.448 µM
TGI (KM12 colon): 2.08 µM
GI50 (OVCAR-4 ovarian): 3.9 µM
TGI (OVCAR-4 ovarian): 47 µM
GI50 (LOX IMVI melanoma): 2.33 µM
TGI (LOX IMVI melanoma): 22 µM
GI50 (SW-620 colon): 1.92 µM
TGI (SW-620 colon): > 100 µM
GI50 (TK-10 renal): 15.2 µM
TGI (TK-10 renal): > 100 µM
GI50 (SNB-19 CNS): 4.87 µM
TGI (SNB-19 CNS): > 100 µM
TGI (DMS 114 small cell lung): 3.13 µM
GI50 (SF-539 CNS): 7.34 µM
TGI (SF-539 CNS): > 100 µM
GI50 (HT29 colon): 2.88 µM
TGI (HT29 colon): 11.5 µM
GI50 (M14 melanoma): 1.81 µM
TGI (M14 melanoma): 5.48 µM
TGI (DMS 273 small cell lung): 4.41 µM
GI50 (CCRF-CEM leukemia): 0.35 µM
TGI (CCRF-CEM leukemia): > 100 µM
GI50 (OVCAR-3 ovarian): 6.88 µM
TGI (OVCAR-3 ovarian): > 100 µM
GI50 (EKVX NSCLC): 15.4 µM
TGI (EKVX NSCLC): 78.4 µM
GI50 (RXF 393 renal): 2 µM
TGI (RXF 393 renal): 4.89 µM
GI50 (OVCAR-8 ovarian): 2.53 µM
TGI (OVCAR-8 ovarian): 12.3 µM
GI50 (OVCAR-5 ovarian): 2.85 µM
TGI (OVCAR-5 ovarian): 8.6 µM
GI50 (HCT-116 colon): 2.58 µM
TGI (HCT-116 colon): 36.4 µM
TGI (SK-MEL-5 melanoma): 3.89 µM
TGI (DLD-1 colon): > 100 µM
GI50 (COLO 205 colon): 4.6 µM
GI50 (HCC-2998 colon): 2.41 µM
TGI (HCC-2998 colon): 5.69 µM
GI50 (NCI-H460 lung): 2.52 µM
TGI (NCI-H460 lung): 11.7 µM
GI50 (SF-268 CNS): 6.33 µM
TGI (SF-268 CNS): 55.2 µM
GI50 (U251 CNS): 3.57 µM
TGI (U251 CNS): 40.5 µM
GI50 (SN12C renal): 6.71 µM
TGI (SN12C renal): > 100 µM
GI50 (NCI-H226 lung): 2.28 µM
TGI (NCI-H226 lung): 14.2 µM
GI50 (SK-MEL-2 melanoma): 3.37 µM
TGI (SK-MEL-2 melanoma): 18.1 µM
GI50 (786-0 renal): 18.5 µM
TGI (786-0 renal): 99.8 µM
TGI (IGROV1 ovarian): 35 µM
GI50 (SF-295 CNS): 2.8 µM
TGI (SF-295 CNS): 17.2 µM
GI50 (UO-31 renal): 4.09 µM
TGI (UO-31 renal): 24.1 µM
GI50 (A549 NSCLC): 3.59 µM
TGI (A549 NSCLC): > 100 µM
TGI (SR leukemia): > 100 µM
GI50 (UACC-257 melanoma): 2.1 µM
TGI (UACC-257 melanoma): 6.69 µM
GI50 (UACC-62 melanoma): 2.49 µM
TGI (UACC-62 melanoma): 7.41 µM
GI50 (SK-MEL-28 melanoma): 2.43 µM
TGI (SK-MEL-28 melanoma): 9.41 µM
GI50 (SK-OV-3 ovarian): 15.1 µM
TGI (SK-OV-3 ovarian): 39.6 µM

COc1ccc(C(N)=O)c(OC)c1OCc1ccccc1
TGI (NCI-H522 lung): 81.7 µM
TGI (LXFL 529 NSCLC): > 100 µM
TGI (KM20L2 colon): > 100 µM
TGI (NCI-H23 lung): > 100 µM
TGI (HCT-15 colon): > 100 µM
TGI (SNB-75 CNS): > 100 µM
TGI (KM12 colon): > 100 µM
TGI (MOLT-4 leukemia): > 100 µM
TGI (OVCAR-4 ovarian): > 100 µM
TGI (LOX IMVI melanoma): > 100 µM
TGI (SW-620 colon): > 100 µM
TGI (TK-10 renal): > 100 µM
TGI (SNB-19 CNS): > 100 µM
TGI (DMS 114 small cell lung): > 100 µM
TGI (RPMI-8226 leukemia): > 100 µM
TGI (SF-539 CNS): > 100 µM
TGI (HL-60(TB) leukemia): > 100 µM
TGI (M19-MEL melanoma): > 100 µM
TGI (HT29 colon): > 100 µM
TGI (HOP-62 NSCLC): > 100 µM
TGI (M14 melanoma): > 100 µM
TGI (DMS 273 small cell lung): > 100 µM
TGI (CCRF-CEM leukemia): > 100 µM
TGI (OVCAR-3 ovarian): > 100 µM
TGI (EKVX NSCLC): > 100 µM
TGI (RXF 393 renal): 7.11 µM
TGI (OVCAR-8 ovarian): > 100 µM
TGI (OVCAR-5 ovarian): > 100 µM
TGI (HCT-116 colon): > 100 µM
TGI (ACHN renal): > 100 µM
TGI (SK-MEL-5 melanoma): > 100 µM
TGI (DLD-1 colon): > 100 µM
TGI (COLO 205 colon): > 100 µM
TGI (HCC-2998 colon): > 100 µM
TGI (NCI-H460 lung): > 100 µM
TGI (SF-268 CNS): > 100 µM
TGI (U251 CNS): > 100 µM
TGI (SN12C renal): > 100 µM
TGI (HOP-92 NSCLC): > 100 µM
TGI (SNB-78 CNS): > 100 µM
TGI (NCI-H226 lung): > 100 µM
TGI (A498 renal): > 100 µM
TGI (SK-MEL-2 melanoma): > 100 µM
TGI (786-0 renal): > 100 µM
TGI (IGROV1 ovarian): > 100 µM
TGI (SF-295 CNS): > 100 µM
TGI (UO-31 renal): > 100 µM
TGI (A549 NSCLC): > 100 µM
TGI (K-562 leukemia): > 100 µM
TGI (UACC-62 melanoma): > 100 µM
TGI (SK-MEL-28 melanoma): > 100 µM
TGI (SK-OV-3 ovarian): > 100 µM

Cc1ccc(C(=O)Nc2ccccc2)cc1N=NN(C)C
TGI (NCI-H522 lung): > 100 µM
TGI (LXFL 529 NSCLC): > 100 µM
TGI (CAKI-1 renal): > 100 µM
TGI (NCI-H23 lung): > 100 µM
TGI (HCT-15 colon): > 100 µM
TGI (KM12 colon): > 100 µM
TGI (OVCAR-4 ovarian): > 100 µM
TGI (LOX IMVI melanoma): > 100 µM
TGI (SW-620 colon): > 100 µM
TGI (TK-10 renal): > 100 µM
TGI (SNB-19 CNS): > 100 µM
TGI (SF-539 CNS): > 100 µM
TGI (M19-MEL melanoma): > 100 µM
TGI (HT29 colon): > 100 µM
TGI (HOP-62 NSCLC): > 100 µM
TGI (M14 melanoma): > 100 µM
TGI (DMS 273 small cell lung): > 100 µM
TGI (OVCAR-3 ovarian): > 100 µM
TGI (EKVX NSCLC): > 100 µM
TGI (OVCAR-8 ovarian): > 100 µM
TGI (HCT-116 colon): > 100 µM
TGI (ACHN renal): > 100 µM
TGI (SK-MEL-5 melanoma): > 100 µM
TGI (DLD-1 colon): > 100 µM
TGI (HCC-2998 colon): > 100 µM
TGI (NCI-H460 lung): > 100 µM
TGI (SF-268 CNS): > 100 µM
TGI (U251 CNS): > 100 µM
TGI (SN12C renal): > 100 µM
TGI (HOP-92 NSCLC): > 100 µM
TGI (SNB-78 CNS): > 100 µM
TGI (SK-MEL-2 melanoma): > 100 µM
TGI (786-0 renal): 44 µM
TGI (IGROV1 ovarian): > 100 µM
TGI (SF-295 CNS): > 100 µM
TGI (UO-31 renal): > 100 µM
TGI (A549 NSCLC): > 100 µM
TGI (UACC-257 melanoma): > 100 µM
TGI (UACC-62 melanoma): > 100 µM
TGI (SK-MEL-28 melanoma): > 100 µM
